Data published in ChEMBL document CHEMBL1128179, “Structure-activity study of tripeptide thrombin inhibitors using alpha-alkyl amino acids and other conformationally constrained amino acid substitutions” (J Med Chem, 1995).
Square brackets hold non-standard residues; d marks the D form. Peptide text beside a SMILES is read from it. * marks the point of attachment. Tic = O=C(O)[C@@H]1Cc2ccccc2CN1; dPhg = N[C@@H](C(=O)O)c1ccccc1; Boc = CC(C)(C)OC(=O)*

How the values were obtained:
[1] = target: Tissue-type plasminogen activator (Homo sapiens, UniProt P00750); experiment: In vitro Enzyme Inhibitory activity against t-PA(Tissue plasminogen activator).
Prothrombin = Prothrombin (Bos taurus, UniProt P00735); experiment: In vitro Enzyme Inhibitory activity measured against Thrombin
Serine protease 1 = target: T1, Serine protease 1 (Bos taurus, UniProt P00760); experiment: In vitro Enzyme Inhibitory activity measured against Trypsin
T1 sequence (P00760 whole entry): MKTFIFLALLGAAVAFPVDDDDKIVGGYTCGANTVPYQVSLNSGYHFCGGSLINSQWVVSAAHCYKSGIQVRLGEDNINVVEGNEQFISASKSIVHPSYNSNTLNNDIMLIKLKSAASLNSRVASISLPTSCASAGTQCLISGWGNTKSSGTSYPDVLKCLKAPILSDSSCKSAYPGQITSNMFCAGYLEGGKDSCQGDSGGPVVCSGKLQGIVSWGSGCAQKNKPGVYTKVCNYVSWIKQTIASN

Coagulation factor X = Coagulation factor X (Bos taurus, UniProt P00743); experiment: In vitro Enzyme Inhibitory activity measured against Coagulation factor X
Plasminogen = Plasminogen (Homo sapiens, UniProt P00747); experiment: In vitro Enzyme Inhibitory activity measured against Plasmin
[2] = Ratio of IC50 towards Tissue Plasminogen activator to thrombin
[3] = Ratio of IC50 towards Plasmin to thrombin

Coagulation factor X, sequence (P00743 41-180 limits assumed): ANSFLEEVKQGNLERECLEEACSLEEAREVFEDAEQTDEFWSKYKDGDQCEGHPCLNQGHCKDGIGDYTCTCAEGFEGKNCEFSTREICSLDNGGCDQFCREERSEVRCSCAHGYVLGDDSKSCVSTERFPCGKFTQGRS
Coagulation factor X, sequence (P00743 234-492 limits assumed): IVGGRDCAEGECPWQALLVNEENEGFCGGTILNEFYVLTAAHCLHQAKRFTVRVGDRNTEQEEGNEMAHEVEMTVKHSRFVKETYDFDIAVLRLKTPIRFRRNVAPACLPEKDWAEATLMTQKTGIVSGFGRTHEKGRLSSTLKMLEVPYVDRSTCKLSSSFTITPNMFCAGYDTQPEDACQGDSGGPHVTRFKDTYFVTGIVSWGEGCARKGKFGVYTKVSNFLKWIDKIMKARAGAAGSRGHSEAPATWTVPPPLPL
Tissue-type plasminogen activator, sequence (P00750 whole entry): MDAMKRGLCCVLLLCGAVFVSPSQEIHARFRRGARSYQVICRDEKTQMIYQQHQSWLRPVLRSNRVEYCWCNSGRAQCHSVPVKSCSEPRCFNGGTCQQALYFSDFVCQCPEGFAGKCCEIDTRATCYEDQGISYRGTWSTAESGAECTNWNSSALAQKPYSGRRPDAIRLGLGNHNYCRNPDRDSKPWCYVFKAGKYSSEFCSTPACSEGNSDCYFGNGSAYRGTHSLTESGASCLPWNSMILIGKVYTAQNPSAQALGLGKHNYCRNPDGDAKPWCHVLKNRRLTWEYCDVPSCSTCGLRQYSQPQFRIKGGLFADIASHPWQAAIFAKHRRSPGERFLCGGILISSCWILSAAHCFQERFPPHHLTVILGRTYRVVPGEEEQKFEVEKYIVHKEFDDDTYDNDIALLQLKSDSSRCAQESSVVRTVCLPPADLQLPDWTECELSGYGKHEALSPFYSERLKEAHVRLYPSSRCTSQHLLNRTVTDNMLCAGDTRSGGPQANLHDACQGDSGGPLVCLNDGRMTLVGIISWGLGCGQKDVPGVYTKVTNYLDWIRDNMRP
Plasminogen, sequence (P00747 97-580 limits assumed): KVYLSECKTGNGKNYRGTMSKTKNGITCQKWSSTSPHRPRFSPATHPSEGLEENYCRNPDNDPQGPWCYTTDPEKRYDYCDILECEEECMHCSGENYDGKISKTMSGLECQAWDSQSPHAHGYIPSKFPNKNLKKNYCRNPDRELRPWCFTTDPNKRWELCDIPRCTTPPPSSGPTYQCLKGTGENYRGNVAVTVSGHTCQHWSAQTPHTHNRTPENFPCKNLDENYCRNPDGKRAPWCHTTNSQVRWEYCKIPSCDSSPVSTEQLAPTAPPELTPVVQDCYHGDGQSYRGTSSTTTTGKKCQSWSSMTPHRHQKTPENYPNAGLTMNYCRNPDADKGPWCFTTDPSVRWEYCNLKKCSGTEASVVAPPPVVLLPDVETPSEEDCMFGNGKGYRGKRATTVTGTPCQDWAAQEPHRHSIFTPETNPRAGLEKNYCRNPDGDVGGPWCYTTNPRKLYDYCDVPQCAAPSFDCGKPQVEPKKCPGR
Plasminogen, sequence (P00747 581-810 limits assumed): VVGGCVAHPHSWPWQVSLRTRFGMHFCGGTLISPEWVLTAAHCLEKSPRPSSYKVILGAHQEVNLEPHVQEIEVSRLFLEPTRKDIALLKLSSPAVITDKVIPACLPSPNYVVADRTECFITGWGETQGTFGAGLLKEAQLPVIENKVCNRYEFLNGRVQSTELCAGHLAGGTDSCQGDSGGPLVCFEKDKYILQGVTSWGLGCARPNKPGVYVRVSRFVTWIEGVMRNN

IC50 [1] [µM] | IC50 (Prothrombin) [µM] | IC50 (Serine protease 1) [µM] | IC50 (Coagulation factor X) [µM] | IC50 (Plasminogen) [µM] | Selectivity [2] | Selectivity [3] | SMILES
30 | 0.046 | 0.0091 | 3.3 | 0.23 | 650 | 5 | N=C(N)NCCC[C@@H](C=O)NC(=O)[C@@H]1CCCN1C(=O)[C@@H]1C[C@@H]2CCCC[C@@H]2CN1
> 30000 | – | 0.17 | 18 | 11 | – | – | CC(C)(C)OC(=O)NC(Cc1ccccc1)C(=O)N1C(C(=O)N[C@H](C=O)CCCN=C(N)N)CCC1(C)C (stereo in doubt) [listing 1 of 3 here]
48 | 1.7 | 0.72 | 32 | 8.1 | – | – | CC(C)(C)OC(=O)N[C@@H](Cc1ccccc1)C(=O)N1CCCC[C@H]1C(=O)N[C@H](C=O)CCCNC(=N)N
– | – | – | – | – | 2400 | 80 | CN[C@H](Cc1ccccc1)C(=O)N1CCC[C@H]1C(=O)N[C@H](C=O)CCCNC(=N)N
– | 0.29 | – | – | – | – | – | CC(C)(C)OC(=O)NC(Cc1ccccc1)C(=O)N1C(C(=O)N[C@H](C=O)CCCN=C(N)N)CCC1(C)C (stereo in doubt) [listing 2 of 3 here]
> 30000 | 0.064 | 0.18 | 190 | 45 | > 50000 | 700 | C[C@](NC(=O)C(F)(F)F)(C(=O)N1CCC[C@H]1C(=O)N[C@H](C=O)CCCN=C(N)N)c1ccccc1
130 | 0.012 | 0.0096 | 98 | 6.1 | 11000 | 510 | C[C@](NC(=O)C(F)(F)F)(C(=O)N1CC[C@H]1C(=O)N[C@H](C=O)CCCN=C(N)N)c1ccccc1
0.9 | – | 0.0097 | 1.3 | 0.36 | – | – | CC(C)(C)OC(=O)N[C@H](Cc1ccccc1)C(=O)N1CC[C@H]1C(=O)N[C@H](C=O)CCCNC(=N)N
– | – | – | – | – | > 50000 | 38 | CC(C)(C)OC(=O)NC(Cc1ccccc1)C(=O)N1C(C(=O)N[C@H](C=O)CCCN=C(N)N)CCC1(C)C (stereo in doubt) [listing 3 of 3 here]
> 30000 | 1 | 240 | 1800 | 850 | > 30000 | 850 | CN[C@@H](Cc1ccccc1)C(=O)N1CCC[C@H]1C(=O)N[C@](C)(C=O)CCCN=C(N)N
23 | – | 0.0088 | 0.86 | 0.34 | – | – | CC(C)(C)OC(=O)NC(Cc1ccccc1)C(=O)N1CSCC1C(=O)N[C@H](C=O)CCCN=C(N)N (stereo in doubt) [listing 1 of 3 here]
– | – | – | – | – | 30 | 5 | CC(C)(C)OC(=O)N[C@@H](Cc1ccccc1)C(=O)N1CCCC[C@H]1C(=O)N[C@H](C=O)CCCN=C(N)N
– | – | – | – | – | 13000 | 400 | CC(=O)N[C@@](C)(C(=O)N1CC[C@H]1C(=O)N[C@H](C=O)CCCN=C(N)N)c1ccccc1
21 | 0.0089 | 0.013 | 7.6 | 0.67 | – | – | CN[C@H](Cc1ccccc1)C(=O)N1CCC[C@H]1C(=O)N[C@H](C=O)CCCN=C(N)N
– | – | 0.0052 | 32 | 4.3 | – | – | CC[C@](NC(=O)C(F)(F)F)(C(=O)N1CC[C@H]1C(=O)N[C@H](C=O)CCCN=C(N)N)c1ccccc1
120 | 0.022 | 0.015 | 0.89 | 3.9 | 5500 | 180 | CC(C)(C)OC(=O)N[C@@](C)(C(=O)N1CC[C@H]1C(=O)N[C@H](C=O)CCCN=C(N)N)c1ccccc1
– | – | – | – | – | 260 | 4 | CC(C)(C)OC(=O)NC(Cc1ccccc1)C(=O)N1CSCC1C(=O)N[C@H](C=O)CCCN=C(N)N (stereo in doubt) [listing 2 of 3 here]
– | 0.088 | – | – | – | – | – | CC(C)(C)OC(=O)NC(Cc1ccccc1)C(=O)N1CSCC1C(=O)N[C@H](C=O)CCCN=C(N)N (stereo in doubt) [listing 3 of 3 here]
6.6 | – | 0.011 | 0.27 | 0.15 | – | – | CC(C)(C)OC(=O)N[C@@H](C(=O)N1CC[C@H]1C(=O)N[C@H](C=O)CCCN=C(N)N)c1ccccc1
250 | 0.019 | 0.011 | 86 | 7.5 | – | – | CC(=O)N[C@@](C)(C(=O)N1CC[C@H]1C(=O)N[C@H](C=O)CCCNC(=N)N)c1ccccc1

SMILES | IC50 [1] [µM] | IC50 (Prothrombin) [µM] | IC50 (Serine protease 1) [µM] | IC50 (Coagulation factor X) [µM] | IC50 (Plasminogen) [µM] | Selectivity [2] | Selectivity [3]
N=C(N)NCCC[C@@H](C=O)NC(=O)[C@@H]1CCCN1C(=O)[C@@H]1Cc2ccccc2CN1 (H-[Tic]-Pro-Arg-aldehyde) | 430 | 0.019 | 0.023 | 0.64 | – | – | –
CC(C)(C)OC(=O)NC(Cc1ccccc1)C(=O)N1CC[C@H]1C(=O)N[C@@H](CCCN=C(N)N)C(=O)O (stereo in doubt) | – | 0.018 | – | – | – | 50 | 20
CC(C)(C)OC(=O)N[C@H](Cc1ccccc1)C(=O)N1CCC[C@H]1C(=O)N[C@H](C=O)CCCN=C(N)N | 0.95 | 0.045 | 0.014 | 1.6 | – | 20 | 4
CC(C)(C)OC(=O)N[C@@H](C(=O)N1CCC[C@H]1C(=O)N[C@H](C=O)CCCN=C(N)N)c1ccccc1 (Boc-[dPhg]-Pro-Arg-aldehyde) | 8.7 | 0.016 | 0.0098 | 0.26 | – | 540 | 6
N=C(N)NCCC[C@@H](C=O)NC(=O)[C@@H]1CCCN1C(=O)[C@@H]1NCC[C@@H]2CCCC[C@@H]21 | 34 | 0.019 | 0.053 | 0.55 | 0.71 | 1800 | 40
